In PMC4503954, “The mitochondrial malate dehydrogenase 1 gene GhmMDH1 is involved in plant and root growth under phosphorus deficiency conditions in cotton” (Scientific Reports, 2015) one finds Km data, which are given here for 4 compounds.

The experiment has as its target T1, GhmMDH1 (Gossypium hirsutum, UniProt A0A1U8J4P3).
T1 construct: gene LOC107903665; N-terminus […]; (27-residue mitochondrial target signal)
In words: NADH/NAD+ absorbance at […] nm, nonlinear regression. The format is biochemical. To be noted: 50 mM MOPS pH 7.5, 25 °C.

Molecules are shown by their SMILES.

T1 sequence (A0A1U8J4P3 entry or part of it): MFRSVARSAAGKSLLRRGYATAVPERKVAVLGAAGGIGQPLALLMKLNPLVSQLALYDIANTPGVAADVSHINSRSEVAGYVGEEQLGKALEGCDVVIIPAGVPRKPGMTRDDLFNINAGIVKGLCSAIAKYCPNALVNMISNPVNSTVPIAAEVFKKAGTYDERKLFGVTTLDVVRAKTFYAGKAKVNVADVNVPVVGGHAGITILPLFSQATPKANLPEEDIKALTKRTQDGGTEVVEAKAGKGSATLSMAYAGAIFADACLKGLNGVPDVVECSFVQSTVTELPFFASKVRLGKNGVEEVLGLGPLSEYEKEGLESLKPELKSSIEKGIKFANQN

Take `O=C(O)C[C@H](O)C(=O)O` [Malate]: the Michaelis constant (Km) (commonly the substrate concentration at which the rate is half of its maximum) (1.0 mM NAD+) came out at 2910 ± 290 µM. Take `O=C(O)CC(=O)C(=O)O` [OAA]: the Km (0.2 mM NADH) worked out at 132 ± 25 µM. For `NC(=O)C1=CN([C@@H]2O[C@H](COP(=O)(O)OP(=O)(O)OC[C@H]3O[C@@H](n4cnc5c(N)ncnc54)[C@H](O)[C@@H]3O)[C@@H](O)[C@H]2O)C=CC1` [NADH], the Km (0.5 mM OAA) came to 107 ± 19 µM. On to `NC(=O)c1ccc[n+]([C@@H]2O[C@H](COP(=O)(O)OP(=O)(O)OC[C@H]3O[C@@H](n4cnc5c(N)ncnc54)[C@H](O)[C@@H]3O)[C@@H](O)[C@H]2O)c1` [NAD^+], for which the Km (50 mM L-malate) came to 766 ± 84 µM.
